Tests used:
Water-solubility = format: physicochemical; details: compared with chlorophyll
skin = assay: Applicant's studies of chlorophyllin combined with aminolevulinic acid

## chlorophyllin
Water-solubility
  water-solubility: good water-solubility
skin
  effectiveness of aminolevulinic acid: promoting the effectiveness
  protective role against side effects of aminolevulinic acid (erythema): preventing in particular the appearance of erythema

From patent US20100255045A1, “COMPOSITION FOR PHOTODYNAMIC SKIN TREATMENT” (priority 2007, published 2010)
